Data taken from PubChem BioAssay AID1218 (NMMLSC, 2008).
Records with an inconclusive call do not appear. The source made the active and inactive calls.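 How the source made its calls: active means score of 100, meaning the red fluorescent reporter moved fully into the nucleus as with estrogen, or estrogen's effect was fully blocked; inactive means score of 0 or 50, meaning partial or no effect.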

biological target: Estrogen receptor beta (Homo sapiens) (UniProt Q92731); assay: estrogen receptor beta signaling via PH-RFP translocation – imaging, Cos7 cells, ERbeta-GFP, PH-RFP reporter, orthogonal assay for ERbeta ligand project, confirmation (AID 1218); settings: PIP3 translocation imaging, at 10 µM, stronger effect = higher value
Sequence (Q92731 whole entry, looked up): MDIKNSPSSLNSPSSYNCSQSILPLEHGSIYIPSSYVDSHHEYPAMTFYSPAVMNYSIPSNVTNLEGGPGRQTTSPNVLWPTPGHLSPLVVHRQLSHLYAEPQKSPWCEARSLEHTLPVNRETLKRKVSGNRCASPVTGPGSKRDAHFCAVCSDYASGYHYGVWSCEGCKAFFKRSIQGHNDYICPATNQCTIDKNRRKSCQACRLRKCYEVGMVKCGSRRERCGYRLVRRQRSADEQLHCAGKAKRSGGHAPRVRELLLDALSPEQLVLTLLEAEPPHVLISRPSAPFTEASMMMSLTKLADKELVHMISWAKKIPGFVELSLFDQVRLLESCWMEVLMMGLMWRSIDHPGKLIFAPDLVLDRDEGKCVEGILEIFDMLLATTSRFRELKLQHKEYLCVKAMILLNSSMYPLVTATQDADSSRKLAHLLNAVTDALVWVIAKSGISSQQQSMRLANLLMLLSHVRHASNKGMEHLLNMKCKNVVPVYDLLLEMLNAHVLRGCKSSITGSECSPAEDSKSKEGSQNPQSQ

Compound	response score
Cc1cc(C)c2c(c1)[C@@H]1C=CC[C@@H]1[C@H](c1ccc(S(=O)(=O)N3CCOCC3)cc1)N2	100
O=C(O)c1ccc2c(c1)C1C(Cl)C(Sc3ccccc3[N+](=O)[O-])CC1C(c1cccc([N+](=O)[O-])c1)N2 (stereo not drawn)	0 (inactive)
COc1ccccc1N1CCN(C(=O)c2ccc3nc(-c4ccco4)c(-c4ccco4)nc3c2)CC1	100
COc1cccc(NS(=O)(=O)c2ccc3c(c2)C2C=CCC2C(c2ccc(C(=O)O)cc2)N3)c1 (stereo not drawn)	50 (inactive)
Cc1cc(-c2nn3c(-c4ccccc4)nnc3s2)c2ccccc2n1	100
O=C(O)c1cc(Cl)c2c(c1)[C@@H]1C=CC[C@@H]1[C@H](c1ccc(S(=O)(=O)N3CCOCC3)cc1)N2	50 (inactive)
Brc1cc2c(cc1C1Nc3ccccc3C3C=CCC31)OCO2 (stereo not drawn)	0 (inactive)
Nc1ncnc2c1ncn2C1CCC(CO)C(O)C1 (stereo not drawn)	50 (inactive)
